Measurements: patent publication US20190000850A1, “COMBINATION CANCER THERAPY” (The Regents of the University of California, priority 2015, published 2019)

Assays:
[1] = cited from earlier work
[2] = tested on: Jurkat cells; test: dGTP/DNA-G biosynthesis with [^13C6]glucose and [^15N5]dG labeling; format: cell-based
Procedure: Another approach to study dGTP/DNA-G biosynthetic pathways is through anticancer therapy Forodesine (BCX-1777). The precursor for DNA-G, dGTP, can be produced from glucose via the de novo pathway and from salvage of extracellular dG either as nucleobase and/or intact nucleoside (FIG. 42A). […] Jurkat cells were labeled for 18 h in the following conditions: untreated, PNP inhibitor (BCX-1777) and DI-82, a specific dCK inhibitor. The labeled media contained […] [U-^13C6]glucose to represent the de novo contribution and 5 μM [^15N5]dG to represent salvage pathways. At the end of the incubation time, [^15N5]dG decreased nearly three orders of magnitude in the culture media from the untreated Jurkat cells, reflecting the high PNP activity in these leukemia cells (FIG. 42B). In contrast, the culture media from BCX-1777 treated cells contained 1.8 μM [^15N5]dG, indicative of reduced dG catabolism.
(§1) Cells were transferred into RPMI-1640 without glucose and supplemented with 10% dialyzed FBS (Gibco) containing any of the following labeled substrates (Cambridge Isotopes): precursors for de novo [U-^13C6]glucose (Sigma-Aldrich) at 11 mM; precursors for purine salvage [U-^13C10,^15N5]dA (Cambridge Isotopes), [^15N5]dA (Cambridge Isotopes), [^15N5]dG (Cambridge Isotopes), [U-^13C5,^15N4]Hx (Cambridge Isotopes) at 5 μM or as indicated in the text; and precursors for pyrimidine salvage: [U-^13C9,^15N3]dC (Silantes) and [U-^13C10,^15N2]dT (Cambridge Isotopes) at 5 μM. The cells were incubated for 18 h or as indicated in the text before samples collection and processing.
(§2) Culture medium was collected 20 μL at the indicated time points. Stock solutions (10 mM) of [U-^13C10,^15N5]dA, and [^15N3]dC (Cambridge Isotope Laboratories) were prepared individually in dimethyl sulfoxide (DMSO), and stored at −20° C. before use as internal standards. The internal standards were diluted to 20 nM in methanol to generate internal standard solution. Calibration standards were prepared by spiking working stock solutions of [U-^13C10,^15N5]dA and [U-^13C9,^15N3]dC blank media to give concentrations in the 10 nM-10 μM range. Each 20 μL calibration standard sample was mixed with 60 μL of internal standard solution, mixed (30 s) and centrifuged (15,000 g, 10 min, 4° C.) and 60 μL of supernatant were transferred into a clean mass spec vial for LC-MS/MS-MRM analysis. Media samples were processed similarly and in parallel to the calibration standard samples.
Cells were collected into microcentrifuge tube and centrifuged (450×g, 4 min, 4° C.). The supernatant was carefully aspirated. The cells were washed twice by the addition of 1 mL of cold PBS and centrifugation (450×g, 4 min 4° C.). PBS washes were aspirated. […]

[3] = molecular target: T1, Chk1 (Homo sapiens, UniProt O14757); settings: read-out: IC50 against primary target (Chk1); cited from earlier work
T1 sequence (O14757 1-476): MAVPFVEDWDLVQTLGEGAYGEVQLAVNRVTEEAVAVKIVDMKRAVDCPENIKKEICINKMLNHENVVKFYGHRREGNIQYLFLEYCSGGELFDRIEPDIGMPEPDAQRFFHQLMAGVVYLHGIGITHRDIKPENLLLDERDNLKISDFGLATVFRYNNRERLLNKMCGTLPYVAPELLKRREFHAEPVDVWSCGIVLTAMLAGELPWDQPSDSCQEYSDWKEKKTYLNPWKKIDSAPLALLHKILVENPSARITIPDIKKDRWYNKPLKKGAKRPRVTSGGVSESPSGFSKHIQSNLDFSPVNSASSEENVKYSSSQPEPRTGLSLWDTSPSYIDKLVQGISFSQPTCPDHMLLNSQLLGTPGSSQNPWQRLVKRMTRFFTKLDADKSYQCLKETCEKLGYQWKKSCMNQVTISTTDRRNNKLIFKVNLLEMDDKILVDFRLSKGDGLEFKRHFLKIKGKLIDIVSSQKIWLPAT

[4] = Solubility study in phosphate buffer solution; format: physicochemical; settings: aqueous buffer
[5] = tested on: CCRF-CEM T-ALL cells; test: EdU pulse assay of cell cycle progression after release from G1 arrest; format: cell-based; settings: synchronized CEM cells released from G1
Procedure: Following release from G1, cells progress to early, mid and late S phase (defined as S1, S2 and S3, respectively) and G2/M. By 18 h following release in drug-free media, 42.5% of cells progressed to S3. […] Thus, dCK represents a resistance mechanism to ATR inhibition.
Cells were treated with a CDK4/6 inhibitor, PD-0332991 (Selleckchem) for 18 h to arrest in G1 phase. Subsequently, cells were washed and released into fresh media containing 10% FBS to monitor the progression of synchronized cells throughout the cell cycle by flow cytometry analysis.
For measuring cell cycle progression of synchronous population of cells, cells were first arrested in G1 phase, then washed and released in treated media. Before collecting and fixing cells at various time points, cells were pulse-labeled with 10 μM EdU for 1 h, and then click-labeled with azide-Alexa Fluor 647 (Invitrogen; Click-iT EdU Flow cytometry kit) according to manufacturer's protocol. Total DNA content was assessed by staining with FxCycle-Violet (Invitrogen) at 1 μg/mL final concentration in PBS containing 2% FBS.

[6] = tested on: CEM cells; test: Mass spectrometric assay of de novo (RNR) and salvage (dCK) contribution to dCTP and DNA-C; format: cell-based; settings: G1 released CEM cells
Procedure: To analyze the differential utilization of de novo and nucleotide biosynthetic salvage pathways, cultured cells were incubated with stable isotope labeled DNA precursors. […] Extracted dNTP and DNA were analyzed in a triple quadrupole mass spectrometer (QQQ) using multiple reaction monitoring (MRM). The first (Q1) and third (Q3) quadrupoles function as mass filters while the second (Q2) quadrupole serves as a collision chamber. […] In Q2, the glycosidic bond of the selected dC is cleaved, releasing a protonated nucleobase (NB) fragment and a neutral deoxyribose (dR) molecule. The m/z specific NB fragments from dC is separated in Q3 and detected to generate ion chromatograms. […] Each identifier corresponded to a specific biosynthetic pathway and is defined as [x;y], where “x” is the number of heavy isotope-labeled atoms in NB and “y” is the number of heavy isotope atoms in dR. […] According to current biochemical maps of nucleotide metabolism, the [7;5] identifier can only arise from salvaging [U-^13C9,^15N3]dC into newly synthesized DNA. In contrast, a dC with a [0,5] identifier is a product of the de novo pathway. The ratio of the peak areas in the ion chromatograms of salvage [7;5] and de novo [0;5] identifiers describes the relative contributions of the two biosynthetic routes to the dCTP pool used for DNA replication.
Genomic DNA was extracted using the Quick-gDNA MiniPrep kit (Zymo Research, D3021) and hydrolyzed to nucleosides using the DNA Degradase Plus kit (Zymo Research, E2021) following manufacturer-supplied instructions. In the final step of DNA extraction, 50 μL of water was used to elute the DNA. A nuclease premix solution was prepared by mixing 10× buffer, DNA degradase Plus™ and water in the ratio of 2.5/1/1.5 (v/v/v). DNA hydrolysis reaction was prepared in mass spec vials by mixing 5 μL of the nuclease premix solution (5 U of enzyme) and 20 μL of eluted genomic DNA, the total volume becomes 25 μL. The samples were tapped and flicked downward prior to overnight before incubation at 37° C.
Cells were collected into microcentrifuge tube and centrifuged (450×g, 4 min, 4° C.). The supernatant was carefully aspirated. The cells were washed twice by the addition of 1 mL of cold PBS and centrifugation (450×g, 4 min 4° C.). PBS washes were aspirated. Thereafter, cells were lysed in 40 μL of 70% methanol/water (v/v), vortexed (30 s) and incubated on ice for 10 min. Then 40 μL of chloroform (Fisher) was added, vortexed (30 s) and incubated on ice for another 10 min. The samples were then centrifuged at max speed for 10 min at 4° C. Finally, the supernatant was transferred (≈25 μL) into a mass spec vial.
For genomic DNA and media analysis, an aliquot of DNA hydrolysis or media samples (20 μL) was injected directly onto a porous graphitic carbon column (Thermo Fisher Scientific Hypercarb, 100×2.1 mm, 5 μm particle size) equilibrated in solvent A (water/acetonitrile/formic acid, 95/5/0.2, v/v/v) and eluted (200 μL/min) with an increasing concentration of solvent B (acetonitrile/water/formic acid, 90/10/0.2, v/v/v): min/% B/flow rate (μL/min); 0/0/200, 5/0/200, 10/15/200, 20/15/200, 21/40/200, 25/50/200, 26/100/700, 30/100/700, 3I/O/700, 34/0/700, 35/0/200).

[7] = tested on: Jurkat cells; test: dATP/DNA-A biosynthesis with [^13C6]glucose and [^15N5]dA labeling; format: cell-based
Procedure: The precursor for DNA-A, dATP, can be produced from glucose via the de novo pathway and from salvage of extracellular dA either as nucleobase and/or intact nucleoside (FIG. 41A). […] Pharmacological perturbations were used to investigate the contributions of each dA salvage pathway (FIG. 41A). Jurkat cells were labeled for 18 h in the following conditions: untreated, ADA inhibitor Pentostatin (dCF) and DI-82, a specific dCK inhibitor. The labeled media contained […] [U-^13C6]glucose to represent the de novo contribution and 5 μM [^15N5]dA to represent salvage pathways. At the end of the incubation time, [^15N5]dA was undetectable in the culture media from the untreated Jurkat cells, reflecting the high ADA activity in these leukemia cells (FIG. 41B). In contrast, the culture media from dCF treated cells contained 1.5 μM [^15N5]dA, indicative of reduced dA catabolism.
as §1, §2
Cells were collected into microcentrifuge tube and centrifuged (450×g, 4 min, 4° C.). The supernatant was carefully aspirated. The cells were washed twice by the addition of 1 mL of cold PBS and centrifugation (450×g, 4 min 4° C.). PBS washes were aspirated. Thereafter, cells were lysed in 40 μL of 70% methanol/water (v/v), vortexed (30 s) and incubated on ice for 10 min. […]

[8] = tested on: p185^BCR-ABLArf^−/− pre-B cells; test: dCTP pool and DNA-C measurement with [U-^13C9,^15N3]dC and [U-^13C6]glucose; format: cell-based, mouse; settings: 3, 6, 9 and 12 h treatment
From the text: Therefore, p185^BCR-ABLArf^−/− pre-B cells were labeled with [U-^13C9,^15N3]dC and [U-^13C6]glucose to measure the contribution of salvage pathway via dCK and de novo pathway via RNR, respectively.

[9] = tested on: leukemia cell growth; test: IC50 (cytotoxicity assay) of RNR inhibitors, Table 1; format: cell-based
Procedure: Cells were plated in a 384-well plate (1,000 cells/well for suspension cell lines and 500 cells/well for adherent cell lines in 30 μL). For suspension cell lines, the plate was incubated in 37° C. for 1 h to let the cells settle. For adherent cell lines, the plate was incubated overnight to allow the cells to seed. During incubation, drugs were diluted to desired concentration by serial dilution, vehicle condition was created by adding equivalent amount of DMSO. After incubation, 10 μL of diluted drugs were added to each well, and incubated for 72 h. After incubation, Cell TiterGlo reagent was added to each well according to manufacturer's instructions (Promega, CellTiter-Glo® Luminescent Cell Viability Assay). The plates were shaken for 2 min and incubated in dark for 8 min. Luminescence readings were obtained with luminometer (Molecular devices, SpectraMax).

[10] = molecular target: ATR (Homo sapiens, UniProt Q13535); settings: read-out: IC50 against primary target (ATR); cited from earlier work
Sequence of ATR (Q13535 whole entry): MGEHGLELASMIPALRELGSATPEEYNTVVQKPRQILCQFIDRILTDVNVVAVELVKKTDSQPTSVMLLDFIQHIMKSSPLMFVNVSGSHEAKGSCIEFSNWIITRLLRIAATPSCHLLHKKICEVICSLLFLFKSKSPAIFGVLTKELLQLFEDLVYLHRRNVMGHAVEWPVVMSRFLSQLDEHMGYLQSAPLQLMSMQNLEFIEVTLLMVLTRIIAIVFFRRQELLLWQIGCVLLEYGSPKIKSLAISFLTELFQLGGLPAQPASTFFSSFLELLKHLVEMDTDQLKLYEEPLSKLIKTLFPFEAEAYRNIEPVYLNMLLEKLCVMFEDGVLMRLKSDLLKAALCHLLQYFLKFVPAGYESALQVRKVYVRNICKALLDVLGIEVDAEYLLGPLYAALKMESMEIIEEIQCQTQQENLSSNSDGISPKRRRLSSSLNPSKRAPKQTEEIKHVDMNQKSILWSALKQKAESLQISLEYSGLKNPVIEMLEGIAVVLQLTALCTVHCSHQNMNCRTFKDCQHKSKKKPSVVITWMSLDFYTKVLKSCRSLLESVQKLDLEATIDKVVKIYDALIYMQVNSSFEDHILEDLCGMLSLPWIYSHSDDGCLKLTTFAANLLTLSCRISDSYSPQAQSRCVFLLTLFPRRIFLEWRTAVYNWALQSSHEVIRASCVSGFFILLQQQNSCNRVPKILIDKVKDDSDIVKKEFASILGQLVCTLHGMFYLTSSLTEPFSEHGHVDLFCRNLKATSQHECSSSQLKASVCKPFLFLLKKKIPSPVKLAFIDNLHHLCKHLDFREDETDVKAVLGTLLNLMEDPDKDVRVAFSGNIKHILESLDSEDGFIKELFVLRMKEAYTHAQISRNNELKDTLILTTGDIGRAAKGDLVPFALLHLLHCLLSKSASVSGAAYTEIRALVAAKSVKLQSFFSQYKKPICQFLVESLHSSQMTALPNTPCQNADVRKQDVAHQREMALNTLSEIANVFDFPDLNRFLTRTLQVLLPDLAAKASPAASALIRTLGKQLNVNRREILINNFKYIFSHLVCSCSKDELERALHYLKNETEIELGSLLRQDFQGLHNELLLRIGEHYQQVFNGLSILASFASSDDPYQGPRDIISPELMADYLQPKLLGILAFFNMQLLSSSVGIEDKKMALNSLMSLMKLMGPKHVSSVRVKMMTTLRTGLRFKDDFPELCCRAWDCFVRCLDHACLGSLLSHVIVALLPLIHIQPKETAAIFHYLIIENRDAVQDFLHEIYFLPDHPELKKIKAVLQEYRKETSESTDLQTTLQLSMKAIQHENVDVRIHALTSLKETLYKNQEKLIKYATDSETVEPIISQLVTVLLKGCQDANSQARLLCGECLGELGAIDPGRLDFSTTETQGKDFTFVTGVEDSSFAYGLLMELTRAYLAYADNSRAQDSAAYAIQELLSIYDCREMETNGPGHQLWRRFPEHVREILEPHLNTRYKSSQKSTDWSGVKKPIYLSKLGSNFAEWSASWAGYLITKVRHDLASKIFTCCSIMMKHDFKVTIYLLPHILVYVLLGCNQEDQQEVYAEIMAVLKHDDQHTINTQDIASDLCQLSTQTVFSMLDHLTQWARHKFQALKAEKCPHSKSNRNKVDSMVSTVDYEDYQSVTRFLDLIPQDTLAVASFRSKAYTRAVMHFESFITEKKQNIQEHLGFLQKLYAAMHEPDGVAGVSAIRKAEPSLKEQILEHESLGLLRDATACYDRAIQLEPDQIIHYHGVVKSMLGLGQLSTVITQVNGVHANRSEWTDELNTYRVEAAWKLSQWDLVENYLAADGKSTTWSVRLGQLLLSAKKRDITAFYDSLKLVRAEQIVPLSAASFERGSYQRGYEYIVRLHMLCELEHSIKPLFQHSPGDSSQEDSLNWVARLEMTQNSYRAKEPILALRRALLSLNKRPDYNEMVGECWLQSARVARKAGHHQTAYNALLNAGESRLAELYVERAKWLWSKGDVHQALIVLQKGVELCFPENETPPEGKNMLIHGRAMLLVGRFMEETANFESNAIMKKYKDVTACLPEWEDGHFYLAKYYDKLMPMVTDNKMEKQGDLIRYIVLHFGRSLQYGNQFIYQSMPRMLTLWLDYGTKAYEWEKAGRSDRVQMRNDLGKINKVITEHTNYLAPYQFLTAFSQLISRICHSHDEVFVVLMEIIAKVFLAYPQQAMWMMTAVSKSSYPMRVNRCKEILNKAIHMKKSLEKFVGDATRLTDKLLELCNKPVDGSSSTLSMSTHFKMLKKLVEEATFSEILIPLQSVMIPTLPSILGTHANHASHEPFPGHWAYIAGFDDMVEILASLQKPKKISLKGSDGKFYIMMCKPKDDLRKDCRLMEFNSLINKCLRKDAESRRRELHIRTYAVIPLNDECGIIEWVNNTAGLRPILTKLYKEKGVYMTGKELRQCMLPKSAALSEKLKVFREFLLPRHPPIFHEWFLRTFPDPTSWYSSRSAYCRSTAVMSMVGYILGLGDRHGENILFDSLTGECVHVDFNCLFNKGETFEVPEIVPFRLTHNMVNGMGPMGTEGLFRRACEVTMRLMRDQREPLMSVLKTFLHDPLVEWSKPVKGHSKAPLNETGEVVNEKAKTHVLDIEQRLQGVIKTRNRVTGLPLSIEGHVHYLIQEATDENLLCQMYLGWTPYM
Sequence of ATR (Q8WXE1 whole entry partner): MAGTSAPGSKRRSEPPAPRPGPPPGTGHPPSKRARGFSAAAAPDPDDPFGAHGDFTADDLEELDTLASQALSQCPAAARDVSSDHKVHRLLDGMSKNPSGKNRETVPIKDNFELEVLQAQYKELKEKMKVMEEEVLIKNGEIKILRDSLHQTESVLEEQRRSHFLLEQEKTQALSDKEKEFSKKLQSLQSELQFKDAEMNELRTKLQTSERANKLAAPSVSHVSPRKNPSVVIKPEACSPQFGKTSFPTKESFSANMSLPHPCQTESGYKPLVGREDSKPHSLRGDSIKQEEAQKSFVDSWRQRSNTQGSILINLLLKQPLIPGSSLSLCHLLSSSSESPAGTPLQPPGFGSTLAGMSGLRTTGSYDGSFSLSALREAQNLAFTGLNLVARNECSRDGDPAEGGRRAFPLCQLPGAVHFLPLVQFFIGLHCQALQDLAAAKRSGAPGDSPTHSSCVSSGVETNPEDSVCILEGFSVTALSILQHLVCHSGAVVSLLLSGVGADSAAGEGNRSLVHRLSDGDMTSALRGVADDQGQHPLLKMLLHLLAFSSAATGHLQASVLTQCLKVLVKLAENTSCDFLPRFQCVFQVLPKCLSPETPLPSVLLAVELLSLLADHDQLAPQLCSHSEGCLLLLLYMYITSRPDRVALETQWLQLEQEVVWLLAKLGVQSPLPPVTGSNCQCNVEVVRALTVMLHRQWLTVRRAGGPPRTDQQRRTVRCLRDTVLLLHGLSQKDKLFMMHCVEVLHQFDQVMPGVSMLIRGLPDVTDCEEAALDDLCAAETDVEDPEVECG

[11] = molecular target: ATM (Homo sapiens, UniProt Q13315); settings: cited from earlier work
[12] = tested on: Jurkat cells; test: Cell cycle histograms (DNA content), 24 h treatment; format: cell-based; settings: dCF with 5 μM dA
Procedure: Cells were plated at the density of 0.5 million cells per ml per well in respective media/treatment. After 24 h incubation, cells were harvested and washed with PBS twice before staining with 0.5 ml of propidium iodide (Calbiochem, 1 μg/ml) solution containing Ribonuclease A and 0.3% Triton-X 100. The samples were protected from light before acquisition by flow cytometry.

SMILES: C[C@@H]1COCCN1c1cc(C2([S@](C)(=N)=O)CC2)nc(-c2cc[nH]c3nccc2-3)n1 [AZD6738]
- oral bioavailability [1]: bioavailable)

SMILES: O=c1[nH]cnc2c([C@@H]3N[C@H](CO)[C@@H](O)[C@H]3O)c[nH]c12 [BCX-1777, Forodesine]
- [^15N5]dG in the culture media at the end of incubation ([2]; 18 h, 5 nM BCX-1777, 5 μM [^15N5]dG added): 1.8 µM
- increase in dG salvage into dGTP ([2]; 18 h, BCX-1777): over 300 fold
- increase of dGTP pools compared to untreated cells ([2]; 18 h, PNP inhibition by BCX-1777): 6 fold

SMILES: COc1cc(Nc2cnc(C#N)c(O[C@H](C)CN(C)C)n2)ncc1-c1cnn(C)c1 [CCT244747]
- IC50 [3]: 0.029 to 0.17 µM
- oral bioavailability [1]: bioavailable)

SMILES: COc1ccc(-c2nc(C(C)Sc3nc(N)cc(N)n3)c(C)s2)cc1OCCNS(C)(=O)=O (centres unmarked) [DI-82, N-(2-(5-(4-(1-((4,6-diaminopyrimidin-2-yl)thio)ethyl)-5-methylthiazol-2-yl)-2-methoxyphenoxy)ethyl)methanesulfonamide]
- solubility [4]: < 0.3 mg/mL
- effect on cell cycle progression [5]: does not significantly impair cell cycle progression
- contribution of dCK to dCTP and DNA-C [6]: completely abrogates
- effect on the increased dATP pool level caused by dCF ([7]; 1 μM DI-82 added to dCF): completely reversed
- effect on the increased dGTP pool level caused by BCX-1777 ([2]; 1 μM DI-82 added to BCX-1777): completely reversed
- dCTP pool [8]: nearly depleted

SMILES: CCN1CCC(Oc2c(C#N)ncc3[nH]c4ncccc4c23)CC1 [GDC0425]
- oral bioavailability [1]: orally bioavailable

SMILES: N[C@@H]1CCCN(c2c(Br)cnc3[nH]cc(NC(=O)C4CC4)c23)C1 [GDC0575]
- oral bioavailability [1]: orally bioavailable

SMILES: N#Cc1cc2c(cn1)[nH]c1ncc(-c3ccc(CN4CCCCC4)cc3)cc12 [GNE-900]
- IC50 [3]: 0.001 µM

SMILES: Cc1occc(=O)c1[O-].Cc1occc(=O)c1[O-].Cc1occc(=O)c1[O-].[Ga+3] [Gallium Maltolate]
- IC50 ([9]; 3-AP: cell type independent): 30 µM

SMILES: NC(=O)NO [Hydroxyurea]
- IC50 ([9]; 3-AP: cell type independent): 39 µM

SMILES: Cn1c(=O)n(-c2ccc(C(C)(C)C#N)cc2)c2c3cc(-c4cnc5ccccc5c4)ccc3ncc21 [NVP-BEZ235]
- IC50 [10]: 0.021 µM

SMILES: Cc1cn([C@H]2C[C@H](O)[C@@H](CO)O2)c(=O)[nH]c1=O [Thymidine]
- IC50 ([9]; cell type dependent, range printed with two units (μM to mM)): 50 to 5000 µM

SMILES: CS(=O)(=O)c1ccc(-c2cnc(N)c(C(=O)Nc3ccccc3)n2)cc1 [VE-821]
- IC50 [10]: 0.019 µM
- IC50 [11]: 34 µM

SMILES: OC[C@H]1O[C@@H](n2cnc3c2NC=NC[C@H]3O)C[C@@H]1O [dCF, Pentostatin]
- [^15N5]dA in the culture media at the end of incubation ([7]; 18 h, 10 μM dCF, 5 μM [^15N5]dA added): 1.5 µM
- increase of dATP pools compared to untreated cells ([7]; 18 h, ADA inhibition by dCF): 6 fold
- increase in dA salvage into dATP ([7]; 18 h, dCF): over 190 fold
- reduction of the proportion of cells in G2/M [12]: more than 2 fold
- reduction of the proportion of cells in S-phase [12]: 3 fold
